What all share (experiment): inhibition of tumour cell growth, NCI panel, 48 h
Test [1] concerns SK-MEL-28.
The test system of test [2] is RXF 393.
Test [3] concerns MCF7.
Test [4] deals with HCT-116.
The subject of test [5] is EKVX.
In test [6] the test system is PC-3.
Test [7] deals with SK-MEL-5.
In test [8] the test system is UACC-257.
Test [9] has as its system Hs-578T.
The test system of test [10] is SNB-19.
Test [11] deals with CCRF-CEM.
Test [12] deals with SF-295.
In test [13] the test system is T47D.
The test system of test [14] is SK-MEL-2.
In test [15] the test system is M14.
The test system of test [16] is BT-549.
For test [17], the system named is TK-10.
For test [18], the system named is MDA-N.
Test [19] concerns COLO 205.
The subject of test [20] is LXFL 529.

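Five compound concentrations were applied to cells in 96-well plates for 48 hours; endpoints were derived by simple linear interpolation of the resulting dose-response curve. Here, GI50 denotes the concentration required for 50% inhibition of growth.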 Activity calls are given as the source filed them. Rule as the data show it: active = GI50 up to about 1.1 µM and inactive = higher.

On to `N=c1oc2ccc(Cl)cc2cc1C(=O)Nc1ccccc1`, for which the GI50 in test [1] is > 100 µM (inactive); in test [2], 26.2 µM (inactive); in test [3] it was 19.6 µM (inactive); in [4], > 59 µM (inactive); in test [5], > 59 µM (inactive); in test [6] it was > 100 µM (inactive). Besides, the GI50 is > 100 µM (inactive) in test [7]; > 54.6 µM (inactive) in test [8]; 15.4 µM (inactive) in test [9]; > 62.5 µM (inactive) in test [10]; > 100 µM (inactive) in test [11]; > 100 µM (inactive) in test [12]. Also, the GI50 is 17.3 µM (inactive) in test [13]; > 100 µM (inactive) in test [14]; > 100 µM (inactive) in [15]; > 54 µM (inactive) in [16]; > 75.2 µM (inactive) in test [17]; > 100 µM (inactive) in test [18]. Besides, the GI50 in [19] was > 100 µM (inactive).

For the compound `CCOC(=O)[C@@H](Cc1ccc(CCl)cc1)NC(C)=O`, the GI50 is 27.5 µM (inactive) in [1]; 14 µM (inactive) in [2]; 26.1 µM (inactive) in test [3]; 30.3 µM (inactive) in test [4]; 22.2 µM (inactive) in test [5]; 29 µM (inactive) in test [6]. Moreover, the GI50 is 16 µM (inactive) in test [7]; 17.2 µM (inactive) in [8]; 25.5 µM (inactive) in test [9]; 27.2 µM (inactive) in test [10]; 26.7 µM (inactive) in [11]; 32.8 µM (inactive) in test [12]. Moreover, the GI50 is 26.3 µM (inactive) in [13]; 17.1 µM (inactive) in test [14]; 24.8 µM (inactive) in test [15]; 31.1 µM (inactive) in test [16]; 4.71 µM (inactive) in test [17]; 19 µM (inactive) in [18]. Moreover, the GI50 in test [19] was 18.1 µM (inactive).

For the compound `Cc1cc2nc(N3C(=O)/C(=C/c4ccc(Cl)cc4)N=C3c3ccccc3)sc2cc1C`, the GI50 was 55.7 µM (inactive) in [1]; 14.6 µM (inactive) in test [2]; 23.4 µM (inactive) in test [3]; 18.4 µM (inactive) in test [4]; 24.4 µM (inactive) in [5]; 26.5 µM (inactive) in [6]. In addition, the GI50 in [7] was 16.1 µM (inactive); in [8], 28.4 µM (inactive); in test [9], 26 µM (inactive); in test [10], 42.5 µM (inactive); in test [11] it was 18.1 µM (inactive); in [12] it was 31.2 µM (inactive). The GI50 in test [13] was 27.5 µM (inactive); in test [14], 26.5 µM (inactive); in test [15], 32.7 µM (inactive); in test [16], 26.4 µM (inactive); in [17], 39.3 µM (inactive); in [18], 12.5 µM (inactive). Besides, the GI50 in [19] is 16.1 µM (inactive).

As to `O=[N+]([O-])C1=Cc2cc(Cl)ccc2OC1c1cccc2ccccc12` (stereo not given), the GI50 in [1] is 1.34 µM (inactive); in [2] it was 0.405 µM (active); in test [3], 0.521 µM (active); in test [4] it was 0.187 µM (active); in test [5], 1.27 µM (inactive); in test [6], 0.635 µM (active). In addition, the GI50 is 1.26 µM (inactive) in [7]; 1.34 µM (inactive) in test [8]; 0.692 µM (active) in test [9]; 1.65 µM (inactive) in test [10]; 0.191 µM (active) in [11]; 2.38 µM (inactive) in [12]. Besides, the GI50 was 0.442 µM (active) in test [13]; 1.36 µM (inactive) in test [14]; 1.23 µM (inactive) in test [15]; 0.436 µM (active) in test [16]; 1.27 µM (inactive) in test [17]; 1 µM (active) in test [18]. For the same compound, the GI50 in [19] was 0.719 µM (active).

Regarding `COc1ccc(C(CC2(c3ccc(OC)cc3)SCCCS2)NC(C)=O)cc1` (stereo not given), the GI50 was > 100 µM (inactive) in test [1]; 67.9 µM (inactive) in [2]; 37.2 µM (inactive) in [3]; 56.1 µM (inactive) in [4]; 52.8 µM (inactive) in [5]; 23.8 µM (inactive) in [6]. In addition, the GI50 in test [7] is 18.4 µM (inactive); in [8] it was 26.2 µM (inactive); in test [9] it was 86.7 µM (inactive); in test [10], 99.1 µM (inactive); in test [11], 21.9 µM (inactive); in test [12], 33.8 µM (inactive). The GI50 in [13] was 24.2 µM (inactive); in test [14] it was 41.3 µM (inactive); in test [15], 94 µM (inactive); in test [16], 41.9 µM (inactive); in [17], 39.8 µM (inactive); in [18], 61 µM (inactive). The GI50 in [19] was 25.1 µM (inactive).

Take `COc1cccc2c1C(=O)c1c(O)c3c(c(O)c1C2=O)CC(O)(C(=O)CO)CC3OC1CC(N2CCOCC2C#N)C(O)C(C)O1` (stereo not given): the GI50 in test [1] was < 0.0001 µM (active); in test [2], > 0.01 µM (active); in test [3] it was < 0.0001 µM (active); in test [4] it was < 0.0001 µM (active); in test [5], < 0.0001 µM (active); in [6], < 0.0001 µM (active). The GI50 in test [7] is < 0.0001 µM (active); in test [8] it was < 0.0001 µM (active); in test [9], > 0.01 µM (active); in test [10], < 0.0001 µM (active); in test [11], < 0.0001 µM (active); in test [12], < 0.0001 µM (active). Also, the GI50 in test [13], in test [14], in test [15], in [16], in test [17] and in [18] was < 0.0001 µM (active) in each case. In addition, in test [19], the GI50 was < 0.0001 µM (active).

As for `N#Cc1c(O)nc2[nH]nc(/N=N\c3c(O)ccc4ccccc34)c2c1-c1ccc(Cl)cc1`, the GI50 in test [1] was 0.311 µM (active); in test [2] it was 0.198 µM (active); in test [3], 0.147 µM (active); in test [4] it was 0.114 µM (active); in [5], 0.219 µM (active); in [6] it was 0.303 µM (active). For the same compound, the GI50 in [7] is 0.369 µM (active); in [8], 0.851 µM (active); in [9] it was 0.968 µM (active); in [10], 0.211 µM (active); in [11], < 0.0371 µM (active); in test [12], 0.24 µM (active). For the same compound, the GI50 is 0.173 µM (active) in test [13]; 0.202 µM (active) in [14]; 0.188 µM (active) in test [15]; 0.0826 µM (active) in test [16]; 0.108 µM (active) in test [17]; 0.637 µM (active) in test [18]. In addition, the GI50 in test [19] was 0.433 µM (active).

`Cc1c(Cl)c2ccccc2n1S(=O)(=O)c1ccccc1`: the GI50 in test [1] is > 100 µM (inactive); in test [4] it was 39.2 µM (inactive); in [7], 32.4 µM (inactive); in [8], 53.1 µM (inactive); in [10], 78.7 µM (inactive); in test [11], 48.5 µM (inactive). For the same compound, the GI50 was 46.5 µM (inactive) in [12]; 28.8 µM (inactive) in test [14]; 37.8 µM (inactive) in [15]; 42.1 µM (inactive) in [20]; 65.9 µM (inactive) in test [17]; > 100 µM (inactive) in test [19].
